As a reminder, the IC50 is the point on the concentration scale where inhibition reaches its midpoint.

The results in this text go back to patent US20240207263A1, “SELECTIVE MODULATORS OF ATAXIA TELA[…] (ATM) KINASE AND USES THEREOF” (priority 2021, published 2024).

The test deals with ATM (Homo sapiens (Human), UniProt Q13315). Kind of test: biochemical. In kind it is biochemical. The following applies: read-out: ATM IC50. From the text: Assay a): ATM Biochemical Potency
Data was collected by Caliper.

Sequence of ATM (Q13315 whole entry, looked up): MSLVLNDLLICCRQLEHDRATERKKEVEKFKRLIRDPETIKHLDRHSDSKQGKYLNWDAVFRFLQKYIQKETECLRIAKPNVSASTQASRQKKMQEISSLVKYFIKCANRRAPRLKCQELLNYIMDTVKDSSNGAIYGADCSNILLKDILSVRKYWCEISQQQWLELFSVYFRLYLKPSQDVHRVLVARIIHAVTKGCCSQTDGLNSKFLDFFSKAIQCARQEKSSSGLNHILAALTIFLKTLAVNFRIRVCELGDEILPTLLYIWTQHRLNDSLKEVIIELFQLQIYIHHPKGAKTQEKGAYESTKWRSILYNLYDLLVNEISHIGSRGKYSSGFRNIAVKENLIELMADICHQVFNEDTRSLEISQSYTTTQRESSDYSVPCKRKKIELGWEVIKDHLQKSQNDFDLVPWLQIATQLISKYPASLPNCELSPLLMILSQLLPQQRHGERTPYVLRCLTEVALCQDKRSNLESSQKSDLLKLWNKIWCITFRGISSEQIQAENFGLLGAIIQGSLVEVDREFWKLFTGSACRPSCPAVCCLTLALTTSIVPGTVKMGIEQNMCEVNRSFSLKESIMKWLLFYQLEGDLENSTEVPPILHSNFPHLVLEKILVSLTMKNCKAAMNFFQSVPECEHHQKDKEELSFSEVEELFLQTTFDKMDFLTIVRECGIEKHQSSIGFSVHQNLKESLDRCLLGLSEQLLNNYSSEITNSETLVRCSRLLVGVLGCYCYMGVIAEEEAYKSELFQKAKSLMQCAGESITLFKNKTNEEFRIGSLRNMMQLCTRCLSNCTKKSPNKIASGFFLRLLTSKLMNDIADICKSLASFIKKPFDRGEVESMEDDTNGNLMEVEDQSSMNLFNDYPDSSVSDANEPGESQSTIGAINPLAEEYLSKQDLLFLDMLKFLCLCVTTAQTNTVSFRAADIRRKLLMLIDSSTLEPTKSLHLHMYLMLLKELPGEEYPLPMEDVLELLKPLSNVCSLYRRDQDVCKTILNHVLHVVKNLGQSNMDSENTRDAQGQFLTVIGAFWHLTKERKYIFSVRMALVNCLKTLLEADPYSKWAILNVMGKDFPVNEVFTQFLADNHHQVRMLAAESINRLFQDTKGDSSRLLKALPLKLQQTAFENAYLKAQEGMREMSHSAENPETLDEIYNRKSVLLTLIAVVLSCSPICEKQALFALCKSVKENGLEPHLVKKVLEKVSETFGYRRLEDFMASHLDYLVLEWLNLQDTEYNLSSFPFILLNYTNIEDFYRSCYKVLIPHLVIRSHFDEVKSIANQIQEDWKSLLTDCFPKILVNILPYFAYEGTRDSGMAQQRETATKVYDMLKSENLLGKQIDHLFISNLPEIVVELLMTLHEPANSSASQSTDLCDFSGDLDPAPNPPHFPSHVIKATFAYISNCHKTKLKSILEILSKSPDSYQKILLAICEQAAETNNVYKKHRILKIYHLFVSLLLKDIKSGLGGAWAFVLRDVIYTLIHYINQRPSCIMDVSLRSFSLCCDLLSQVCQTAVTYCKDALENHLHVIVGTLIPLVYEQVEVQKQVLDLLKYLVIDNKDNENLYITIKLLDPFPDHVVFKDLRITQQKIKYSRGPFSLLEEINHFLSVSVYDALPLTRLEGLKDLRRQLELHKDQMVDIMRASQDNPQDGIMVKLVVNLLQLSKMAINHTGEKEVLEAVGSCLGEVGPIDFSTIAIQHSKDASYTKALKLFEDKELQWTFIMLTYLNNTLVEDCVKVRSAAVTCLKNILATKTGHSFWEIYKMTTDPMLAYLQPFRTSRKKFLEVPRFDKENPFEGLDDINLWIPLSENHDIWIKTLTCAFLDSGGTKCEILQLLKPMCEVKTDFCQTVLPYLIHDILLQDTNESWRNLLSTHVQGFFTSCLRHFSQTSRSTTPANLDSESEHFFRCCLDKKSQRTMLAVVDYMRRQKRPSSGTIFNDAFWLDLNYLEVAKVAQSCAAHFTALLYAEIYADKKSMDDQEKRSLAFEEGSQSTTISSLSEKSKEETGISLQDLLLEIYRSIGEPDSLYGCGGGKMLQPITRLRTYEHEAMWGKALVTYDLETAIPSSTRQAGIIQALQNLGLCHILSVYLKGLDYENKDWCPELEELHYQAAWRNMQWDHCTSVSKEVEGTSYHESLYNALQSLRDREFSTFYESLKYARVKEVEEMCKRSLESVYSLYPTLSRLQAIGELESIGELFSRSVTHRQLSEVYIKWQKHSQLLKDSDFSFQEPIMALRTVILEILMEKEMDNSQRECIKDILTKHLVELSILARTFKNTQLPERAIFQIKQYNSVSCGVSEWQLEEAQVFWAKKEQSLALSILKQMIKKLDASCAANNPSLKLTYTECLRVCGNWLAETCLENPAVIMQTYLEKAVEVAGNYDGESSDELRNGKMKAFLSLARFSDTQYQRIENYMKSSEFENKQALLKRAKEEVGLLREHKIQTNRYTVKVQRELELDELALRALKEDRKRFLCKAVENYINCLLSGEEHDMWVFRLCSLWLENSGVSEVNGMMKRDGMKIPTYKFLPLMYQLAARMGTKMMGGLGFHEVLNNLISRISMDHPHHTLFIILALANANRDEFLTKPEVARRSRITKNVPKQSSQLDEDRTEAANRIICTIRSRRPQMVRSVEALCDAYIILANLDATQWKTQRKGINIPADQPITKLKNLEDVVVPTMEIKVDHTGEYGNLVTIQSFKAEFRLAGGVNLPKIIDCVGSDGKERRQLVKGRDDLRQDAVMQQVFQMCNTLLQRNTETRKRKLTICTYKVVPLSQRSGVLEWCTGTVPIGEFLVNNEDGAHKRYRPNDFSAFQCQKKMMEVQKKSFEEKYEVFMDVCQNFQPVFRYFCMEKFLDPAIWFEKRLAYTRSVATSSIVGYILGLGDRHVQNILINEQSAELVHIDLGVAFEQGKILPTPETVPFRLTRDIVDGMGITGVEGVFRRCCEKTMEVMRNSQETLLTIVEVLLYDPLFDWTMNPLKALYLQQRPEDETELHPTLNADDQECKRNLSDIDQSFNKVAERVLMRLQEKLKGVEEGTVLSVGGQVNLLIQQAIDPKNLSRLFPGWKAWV

On to `CC(C)n1c(=O)n(C)c2nnc3ccc(-c4ccc(COCCN5CC[C@H](F)C5)nc4)cc3c21` [Example 34, (S)-8-(6-((2-(3-fluoropyrrolidin-1-yl)ethoxy)methyl)pyridin-3-yl)-1-isopropyl-3-methyl-1H-imidazo[4,5-c]cinnolin-2(3H)-one], for which the IC50 was 47 nM. For the compound `CC(C)n1c(=O)n(C)c2nnc3ccc(-c4ccc(COCCN5CCC[C@H]5C)nc4)cc3c21` [Example 35, (R)-1-isopropyl-3-methyl-8-(6-((2-(2-methylpyrrolidin-1-yl)ethoxy)methyl)pyridin-3-yl)-1H-imidazo[4,5-c]cinnolin-2(3H)-one], the IC50 is 43 nM. The same measure for `CC(C)n1c(=O)n(C)c2nnc3ccc(-c4ccc(COCCN5CC(N(C)C)C5)nc4)cc3c21` [Example 37, 8-(6-((2-(3-(dimethylamino)azetidin-1-yl)ethoxy)methyl)pyridin-3-yl)-1-isopropyl-3-methyl-1H-imidazo[4,5-c]cinnolin-2(3H)-one]: 78 nM; for `CC(C)n1c(=O)n(C)c2nnc3ccc(-c4ccc(COCCN5CCCC(F)C5)nc4)cc3c21` (stereo not drawn) [Example 38, 8-(6-((2-(3-fluoropiperidin-1-yl)ethoxy)methyl)pyridin-3-yl)-1-isopropyl-3-methyl-1H-imidazo[4,5-c]cinnolin-2(3H)-one]: 57 nM. As for `CC(C)n1c(=O)n(C)c2nnc3ccc(-c4ccc(COCCN5CC6CCC5C6)nc4)cc3c21` (stereo not drawn) [Example 39, 8-(6-((2-(2-azabicyclo[2.2.1]heptan-2-yl)ethoxy)methyl)pyridin-3-yl)-1-isopropyl-3-methyl-1H-imidazo[4,5-c]cinnolin-2(3H)-one], the figure is 73 nM; as for `CC(C)n1c(=O)n(C)c2nnc3ccc(-c4ccc(COCCN5CCCC6(CCC6)C5)nc4)cc3c21` [Example 40, 8-(6-((2-(6-azaspiro[3.5]nonan-6-yl)ethoxy)methyl)pyridin-3-yl)-1-isopropyl-3-methyl-1H-imidazo[4,5-c]cinnolin-2(3H)-one], 24 nM; as for `COC1CCCN(CCOCc2ccc(-c3ccc4nnc5c(c4c3)n(C(C)C)c(=O)n5C)cn2)C1` (stereo not drawn) [Example 41, 1-isopropyl-8-(6-((2-(3-methoxypiperidin-1-yl)ethoxy)methyl)pyridin-3-yl)-3-methyl-1H-imidazo[4,5-c]cinnolin-2(3H)-one], 50 nM. The same measure for `CC(C)n1c(=O)n(C)c2nnc3ccc(-c4ccc(COCCN5CC[C@H](N(C)C)C5)nc4)cc3c21` [Example 42, (S)-8-(6-((2-(3-(dimethylamino)pyrrolidin-1-yl)ethoxy)methyl)pyridin-3-yl)-1-isopropyl-3-methyl-1H-imidazo[4,5-c]cinnolin-2(3H)-one]: 44 nM; for `COC1CCN(CCOCc2ccc(-c3ccc4nnc5c(c4c3)n(C(C)C)c(=O)n5C)cn2)CC1` [Example 44, 1-isopropyl-8-(6-((2-(4-methoxypiperidin-1-yl)ethoxy)methyl)pyridin-3-yl)-3-methyl-1H-imidazo[4,5-c]cinnolin-2(3H)-one]: 12 nM; for `CC(C)n1c(=O)n(C)c2nnc3ccc(-c4ccc(COCCN5[C@H](C)CC[C@@H]5C)nc4)cc3c21` [Example 45, 8-(6-((2-((2R,5S)-2,5-dimethylpyrrolidin-1-yl)ethoxy)methyl)pyridin-3-yl)-1-isopropyl-3-methyl-1H-imidazo[4,5-c]cinnolin-2(3H)-one]: 84 nM. Regarding `CC(C)n1c(=O)n(C)c2nnc3ccc(-c4ccc(COCCN5CC[C@@H](N(C)C)C5)nc4)cc3c21` [Example 46, (R)-8-(6-((2-(3-(dimethylamino)pyrrolidin-1-yl)ethoxy)methyl)pyridin-3-yl)-1-isopropyl-3-methyl-1H-imidazo[4,5-c]cinnolin-2(3H)-one], the IC50 came out at 76 nM. The same measure for `CC(C)n1c(=O)n(C)c2nnc3ccc(-c4ccc(COCCN5CCC(OC(F)(F)F)CC5)nc4)cc3c21` [Example 47, 1-isopropyl-3-methyl-8-(6-((2-(4-(trifluoromethoxy)piperidin-1-yl)ethoxy)methyl)pyridin-3-yl)-1H-imidazo[4,5-c]cinnolin-2(3H)-one]: 2.2 nM.
